Results on 22 compounds are retold here after PubChem BioAssay AID256 (DTP/NCI, 2004).

The assay has as its system CD2F1 mice, L1210 leukemia ip, survival T/C. In words: NCI In Vivo Anticancer Drug Screen. Data for tumor model L1210 Leukemia (intraperitoneal) in CD2F1 (CDF1) mice. To be noted: higher = longer survival. In short, it runs like this: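 Ratio T/C, where T is the treated-group value and C the vehicle-dosed control value, from mice implanted with a transplantable tumor.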

[1] abbreviates: endpoint: mean survival time, dose: 25.0 mg/kg/injection, schedule: Q01DX009 (ip), vehicle: saline with Tween-80.
Where [2] appears, read: endpoint: mean survival time, dose: 50.0 mg/kg/injection, schedule: Q01DX009 (ip), vehicle: saline with Tween-80.
[3] abbreviates: endpoint: mean survival time, dose: 100.0 mg/kg/injection, schedule: Q01DX001 (ip), vehicle: saline with Tween-80.
Setting [4] is: endpoint: mean survival time, dose: 200.0 mg/kg/injection, schedule: Q01DX001 (ip), vehicle: saline with Tween-80.
Setting [5] is: endpoint: mean survival time, dose: 400.0 mg/kg/injection, schedule: Q01DX001 (ip), vehicle: saline with Tween-80.
[6] abbreviates: endpoint: mean survival time, dose: 100.0 mg/kg/injection, schedule: Q01DX009 (ip), vehicle: saline with Tween-80.
The mark [7] stands for this setting: endpoint: mean survival time, dose: 200.0 mg/kg/injection, schedule: Q01DX009 (ip), vehicle: saline with Tween-80.
Where [8] appears, read: endpoint: mean survival time, dose: 400.0 mg/kg/injection, schedule: Q01DX009 (ip), vehicle: saline with Tween-80.
Where [9] appears, read: endpoint: mean survival time, dose: 100.0 mg/kg/injection, schedule: Q04DX003 (ip), vehicle: saline with Tween-80.
Setting [10] is: endpoint: mean survival time, dose: 200.0 mg/kg/injection, schedule: Q04DX003 (ip), vehicle: saline with Tween-80.
The mark [11] stands for this setting: endpoint: mean survival time, dose: 400.0 mg/kg/injection, schedule: Q04DX003 (ip), vehicle: saline with Tween-80.
The mark [12] stands for this setting: endpoint: mean survival time, dose: 100.0 mg/kg/injection, schedule: Q01DX001 (ip), vehicle: saline.
The mark [13] stands for this setting: endpoint: mean survival time, dose: 200.0 mg/kg/injection, schedule: Q01DX001 (ip), vehicle: saline.
The mark [14] stands for this setting: endpoint: mean survival time, dose: 400.0 mg/kg/injection, schedule: Q01DX001 (ip), vehicle: saline.
[15] abbreviates: endpoint: mean survival time, dose: 12.5 mg/kg/injection, schedule: Q01DX009 (ip), vehicle: saline with Tween-80.
Setting [16] is: endpoint: mean survival time, dose: 50.0 mg/kg/injection, schedule: Q01DX001 (ip), vehicle: saline.
Setting [17] is: endpoint: mean survival time, dose: 100.0 mg/kg/injection, schedule: Q04DX003 (ip), vehicle: saline.
Setting [18] is: endpoint: mean survival time, dose: 200.0 mg/kg/injection, schedule: Q04DX003 (ip), vehicle: saline.
The mark [19] stands for this setting: endpoint: mean survival time, dose: 400.0 mg/kg/injection, schedule: Q04DX003 (ip), vehicle: saline.

“And” between values parts separate entries of the source, which are not always exact repeats. Identical values can stand only once. Toxic doses and inconclusive results are not listed.

On to `CCCCn1cnc2c(=S)nc(N)[nH]c21`, for which the T/C reads like this: under setting [1], 162 % of control; under setting [2], 171 % of control; (endpoint: mean survival time, dose: 50.0 mg/kg/injection, schedule: Q04DX003 (ip), vehicle: saline with Tween-80) 157 % of control.

As for `Cc1cn(C2CC(O)C(CO)O2)c(=O)nc1NC1CCCCCCCCCCC1` (configuration not stated), the T/C reads like this: (endpoint: median survival time, dose: 12.5 mg/kg/injection, schedule: Q01DX005 (ip), vehicle: distilled water + Tween-80) 103 % of control; (endpoint: median survival time, dose: 25.0 mg/kg/injection, schedule: Q01DX005 (ip), vehicle: distilled water + Tween-80) 102 % of control; (endpoint: median survival time, dose: 50.0 mg/kg/injection, schedule: Q01DX005 (ip), vehicle: distilled water + Tween-80) 96 % of control; (endpoint: median survival time, dose: 100.0 mg/kg/injection, schedule: Q01DX005 (ip), vehicle: distilled water + Tween-80) 89 % of control.

As for `O=C(O)CNC1CCCC1`, the T/C runs as follows: under setting [3], 97 % of control; under setting [4], 100 % of control; under setting [5], 93 % of control.

Regarding `Cc1c(OCC(=O)O)cc(Cl)c(Cl)c1Cl`, the T/C by setting is: (endpoint: mean survival time, dose: 50.0 mg/kg/injection, schedule: Q04DX002 (ip), vehicle: saline with Tween-80) 105 % of control; (endpoint: mean survival time, dose: 100.0 mg/kg/injection, schedule: Q04DX002 (ip), vehicle: saline with Tween-80) 102 % of control; (endpoint: mean survival time, dose: 200.0 mg/kg/injection, schedule: Q04DX002 (ip), vehicle: saline with Tween-80) 121 % of control.

Consider `COc1ccccc1C(O)(c1ccccc1OC)c1c(OC)cccc1OC`, for which the T/C was 97 % of control under setting [6], 93 % of control under setting [7] and 88 % of control under setting [8].

Turning to `[Cl][Pt+2][Cl].[NH-]C1CCCCC1C1CCCCC1[NH-]` (configuration not stated), the T/C by setting is: (endpoint: mean survival time, dose: 6.25 mg/kg/injection, schedule: Q04DX003 (ip), vehicle: distilled water + Tween-80) 123 % of control; (endpoint: mean survival time, dose: 25.0 mg/kg/injection, schedule: Q04DX003 (ip), vehicle: distilled water + Tween-80) 173 % of control; (endpoint: mean survival time, dose: 100.0 mg/kg/injection, schedule: Q04DX003 (ip), vehicle: distilled water + Tween-80) 86 % of control.

For the compound `Cc1c(O)c2c(c(O)c1Cc1cccc(C#N)c1)C(=O)c1ccccc1C2=O`, the T/C reads like this: (endpoint: mean survival time, dose: 12.5 mg/kg/injection, schedule: Q01DX009 (ip), vehicle: Klucel (hydroxypropylcellulose) (HPC)) 89 % of control; (endpoint: mean survival time, dose: 25.0 mg/kg/injection, schedule: Q01DX009 (ip), vehicle: Klucel (hydroxypropylcellulose) (HPC)) 90 % of control; (endpoint: mean survival time, dose: 50.0 mg/kg/injection, schedule: Q01DX009 (ip), vehicle: Klucel (hydroxypropylcellulose) (HPC)) 90 % of control; (endpoint: mean survival time, dose: 200.0 mg/kg/injection, schedule: Q01DX009 (ip), vehicle: Klucel (hydroxypropylcellulose) (HPC)) 89 % of control.

Regarding `CCCCCCCCCCCCCCCCCOc1c(I)cc(I)cc1I`, the T/C runs as follows: under setting [3], 86 % of control; under setting [4], 94 % of control; under setting [5], 91 % of control.

Consider `Fc1ccc(-c2ccc(F)cc2)cc1`, for which the T/C was 101 % of control under setting [9], 98 % of control under setting [10] and 98 % of control under setting [11].

With `O=C(CO)C(O)C(O)C(O)C(O)CO` (configuration not stated), the T/C was 100 % of control and 105 % of control under setting [12]; 102 % of control and 94 % of control under setting [13]; 96 % of control under setting [14].

As to `NNC(=O)NO`, the T/C under setting [15] is 166 % of control; the T/C under setting [1] is 162 % of control; the T/C under setting [2] is 103 % of control; the T/C under setting [6] was 97 % of control; the T/C under setting [7] is 87 % of control.

On to `Cc1nccc(N)n1`, for which the T/C was 89 % of control under setting [3], 90 % of control under setting [4] and 90 % of control under setting [5].

In the case of `CCCCCCC(=O)/C=C/c1cccc(Cl)c1`, the T/C runs as follows: (endpoint: mean survival time, dose: 100.0 mg/kg/injection, schedule: Q04DX003 (ip), vehicle: Klucel (hydroxypropylcellulose) (HPC)) 104 % of control; (endpoint: mean survival time, dose: 200.0 mg/kg/injection, schedule: Q04DX003 (ip), vehicle: Klucel (hydroxypropylcellulose) (HPC)) 102 % of control; (endpoint: mean survival time, dose: 400.0 mg/kg/injection, schedule: Q04DX003 (ip), vehicle: Klucel (hydroxypropylcellulose) (HPC)) 91 % of control.

On to `CC(=O)Nc1ccc2c(c1)C(=O)c1ccccc1-2`, for which the T/C was 104 % of control under setting [16]; 101 % of control under setting [12]; 106 % of control (endpoint: mean survival time, dose: 100.0 mg/kg/injection, schedule: Q01DX009 (ip), vehicle: saline); 87 % of control under setting [17]; 95 % of control under setting [13]; 96 % of control (endpoint: mean survival time, dose: 200.0 mg/kg/injection, schedule: Q01DX009 (ip), vehicle: saline). Further, the T/C by setting is: under setting [18], 94 % of control; under setting [14], 87 % of control; (endpoint: mean survival time, dose: 400.0 mg/kg/injection, schedule: Q01DX009 (ip), vehicle: saline) 95 % of control; under setting [19], 92 % of control.

On to `CN(C)P(=O)(Oc1ccccc1)N(C)C`, for which the T/C under setting [15] was 98 % of control and 100 % of control; the T/C under setting [1] is 95 % of control and 101 % of control; the T/C under setting [2] was 89 % of control and 96 % of control; the T/C under setting [6] is 94 % of control and 101 % of control; the T/C under setting [7] was 95 % of control and 96 % of control; the T/C under setting [8] is 93 % of control and 96 % of control.

In the case of `O=C(/C=C/c1ccccc1)NC1CC1`, the T/C is 94 % of control under setting [3], 89 % of control under setting [4] and 93 % of control under setting [5].

In the case of `CN(C)c1ccc(N=Nc2ccc3c(c2)C(=O)c2ccccc2C3=O)cc1`, the T/C by setting is: (endpoint: mean survival time, dose: 100.0 mg/kg/injection, schedule: Q04DX003 (ip), vehicle: other) 95 % of control; (endpoint: mean survival time, dose: 200.0 mg/kg/injection, schedule: Q04DX003 (ip), vehicle: other) 93 % of control; (endpoint: mean survival time, dose: 400.0 mg/kg/injection, schedule: Q04DX003 (ip), vehicle: other) 98 % of control.

Consider `CC(=O)OC1C=CC(OC(C)=O)O1` (configuration not stated), for which the T/C (endpoint: mean survival time, dose: 0.75 mg/kg/injection, schedule: Q01DX009 (ip), vehicle: saline with Tween-80) is 103 % of control; the T/C (endpoint: mean survival time, dose: 1.5 mg/kg/injection, schedule: Q01DX009 (ip), vehicle: saline with Tween-80) is 101 % of control; the T/C (endpoint: mean survival time, dose: 1.88 mg/kg/injection, schedule: Q04DX003 (ip), vehicle: saline) is 96 % of control; the T/C (endpoint: mean survival time, dose: 3.0 mg/kg/injection, schedule: Q01DX009 (ip), vehicle: saline with Tween-80) is 95 % of control; the T/C (endpoint: mean survival time, dose: 3.75 mg/kg/injection, schedule: Q04DX003 (ip), vehicle: saline) was 98 % of control; the T/C (endpoint: mean survival time, dose: 7.5 mg/kg/injection, schedule: Q01DX001 (ip), vehicle: saline) was 106 % of control. In addition, the T/C (endpoint: mean survival time, dose: 7.5 mg/kg/injection, schedule: Q04DX003 (ip), vehicle: saline) is 102 % of control.

For `COc1cc(C=O)cc(O)c1O`, the T/C under setting [16] was 94 % of control; the T/C under setting [12] was 96 % of control; the T/C under setting [17] was 95 % of control; the T/C under setting [13] was 91 % of control; the T/C under setting [18] was 92 % of control; the T/C under setting [14] was 89 % of control. Also, the T/C under setting [19] is 92 % of control.

As for `NC(C(=O)O)C(O)C(=O)O` (configuration not stated), the T/C is, setting by setting: (endpoint: mean survival time, dose: 37.5 mg/kg/injection, schedule: Q01DX009 (ip), vehicle: saline) 101 % of control; (endpoint: mean survival time, dose: 75.0 mg/kg/injection, schedule: Q01DX009 (ip), vehicle: saline) 97 % of control; (endpoint: mean survival time, dose: 150.0 mg/kg/injection, schedule: Q01DX009 (ip), vehicle: saline) 98 % of control.

On to `O=S(=O)(NC(=S)Nc1ccc(Cl)cc1)c1ccccc1`, for which the T/C is, setting by setting: under setting [6], 93 % of control; under setting [7], 109 % of control.

As to `CO[Si](c1ccccc1)(c1ccccc1)c1ccc(Br)cc1`, the T/C reads like this: under setting [9], 96 % of control; under setting [10], 98 % of control; under setting [11], 102 % of control.
